In PubChem BioAssay (NCI):
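How tested: cells in 96-well plates exposed to compound for 48 hours at five concentrations. The concentration for 50% growth inhibition is given as GI50. Definition used: TGI = concentration required for complete inhibition of growth.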

Columns and labels:
Assay in all cases: NCI tumour cell line growth inhibition, 48 h
[1] = test system: DLD-1 colon
[2] = test system: DMS 114 small cell lung
[3] = test system: XF 498 CNS
[4] = test system: KM20L2 colon
[5] = test system: M19-MEL melanoma
[6] = test system: P388/ADR leukemia
[7] = test system: HOP-18 NSCLC
[8] = test system: DMS 273 small cell lung
[9] = test system: P388 leukemia
[10] = test system: SN12K1 renal
[11] = test system: LXFL 529 NSCLC

C/C=C(\C)C(=O)OC1C2C(C)=CC(=O)C(O)C2(C)C2C3(O)OCC24C1OC(=O)C(OC(C)=O)C4C(C)C3O (stereo unspecified)
TGI [1]: 0.078 µM | TGI [2]: 0.0409 µM | TGI [3]: 0.0577 µM | TGI [4]: 0.795 µM | TGI [5]: 0.0455 µM | TGI [6]: 0.924 µM | TGI [7]: 0.792 µM | TGI [8]: 0.0382 µM

N#C[S-].[Ce+3].c1ccc(-c2ccccn2)nc1.c1ccc(-c2ccccn2)nc1.c1ccc(-c2ccccn2)nc1
GI50 [1]: 5.26 µM | TGI [1]: > 100 µM | GI50 [2]: 23.9 µM | TGI [2]: 78.8 µM | GI50 [5]: 15.4 µM | TGI [5]: 65.8 µM | GI50 [7]: 4.33 µM | TGI [7]: 46.8 µM | GI50 [8]: 11 µM | TGI [8]: 33.9 µM

CCOC(=O)NC(=O)c1cn(CCN(CCO)C(=O)NCCCCCCNC(=O)N(CCO)CCn2cc(C(=O)NC(=O)OCC)c(=O)[nH]c2=O)c(=O)[nH]c1=O
TGI [1]: > 100 µM | TGI [9]: > 100 µM | TGI [2]: > 100 µM | TGI [3]: > 100 µM | TGI [4]: > 100 µM | TGI [5]: > 100 µM | TGI [6]: > 100 µM | TGI [10]: > 100 µM | TGI [7]: > 100 µM | TGI [8]: > 100 µM

O=C([O-])c1ccccc1Nc1ccccc1C(=O)[O-].[OH3+].[Zn+2]
TGI [1]: > 83.7 µM | TGI [11]: 44.7 µM | TGI [2]: 37.4 µM | TGI [3]: 57.3 µM | TGI [4]: > 100 µM | TGI [5]: 50.1 µM | TGI [7]: > 75.9 µM | TGI [8]: 29.2 µM
